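Briefly, cells in 96-well plates were exposed to five compound concentrations for 48 h, and endpoints were estimated by linear interpolation. GI50 = concentration required for 50% inhibition of growth.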 Activity calls are given as the source filed them. Cut-off read from the data, not from the text of the source: active = GI50 up to about 1.1 µM and inactive = higher.
Tests used:
Experiment in all cases: NCI tumour cell line growth inhibition, 48 h
[1] = system: SNB-75
[2] = system: CAKI-1
[3] = system: SNB-19
[4] = system: UACC-62
[5] = system: NCI-H226
[6] = system: HL-60
[7] = system: SW-620
[8] = system: RXF 393
[9] = system: BT-549
[10] = system: SF-295
[11] = system: RPMI-8226
[12] = system: SF-268
[13] = system: SK-MEL-5
[14] = system: NCI/ADR-RES
[15] = system: DU-145
[16] = system: HCC 2998
[17] = system: SF-539
[18] = system: MDA-MB-231
[19] = system: HT-29
[20] = system: LOX IMVI
[21] = system: SK-MEL-28
[22] = system: SR
[23] = system: HOP-92
[24] = system: COLO 205
[25] = system: NCI-H23
[26] = system: NCI-H460
[27] = system: U-251
[28] = system: HCT-15
[29] = system: OVCAR-4
[30] = system: MCF7
[31] = system: K562
[32] = system: HCT-116
[33] = system: Hs-578T
[34] = system: EKVX
[35] = system: SK-OV-3
[36] = system: SK-MEL-2
[37] = system: ACHN
[38] = system: T47D
[39] = system: PC-3
[40] = system: HOP-62
[41] = system: UACC-257
[42] = system: TK-10
[43] = system: CCRF-CEM
[44] = system: KM12
[45] = system: UO-31
[46] = system: MDA-MB-435
[47] = system: MOLT-4
[48] = system: M14
[49] = system: OVCAR-8
[50] = system: IGROV-1
[51] = system: A498
[52] = system: 786-0

Question: What does the source list for `NC(=O)c1c2c(n3ccccc13)C(=O)c1ccccc1C2=O`?
Answer: GI50 [1]: 37.6 µM (inactive); GI50 [2]: > 100 µM (inactive); GI50 [3]: 74 µM (inactive); GI50 [4]: 68.2 µM (inactive); GI50 [5]: 52.4 µM (inactive); GI50 [6]: > 100 µM (inactive); GI50 [7]: > 100 µM (inactive); GI50 [8]: 37 µM (inactive); GI50 [9]: > 100 µM (inactive); GI50 [10]: 29 µM (inactive); GI50 [11]: > 100 µM (inactive); GI50 [12]: > 100 µM (inactive); GI50 [13]: 16.1 µM (inactive); GI50 [14]: > 100 µM (inactive); GI50 [15]: > 100 µM (inactive); GI50 [16]: > 100 µM (inactive); GI50 [17]: 39.6 µM (inactive); GI50 [18]: 38.5 µM (inactive); GI50 [19]: 32.2 µM (inactive); GI50 [20]: > 100 µM (inactive); GI50 [21]: > 100 µM (inactive); GI50 [22]: > 100 µM (inactive); GI50 [23]: 31 µM (inactive); GI50 [24]: 39.6 µM (inactive); GI50 [25]: 11.9 µM (inactive); GI50 [26]: 19.4 µM (inactive); GI50 [27]: 39.6 µM (inactive); GI50 [28]: > 100 µM; GI50 [29]: > 100 µM (inactive); GI50 [30]: > 100 µM (inactive); GI50 [31]: > 100 µM (inactive); GI50 [32]: > 100 µM (inactive); GI50 [33]: 96.6 µM (inactive); GI50 [34]: > 100 µM (inactive); GI50 [35]: > 100 µM (inactive); GI50 [36]: 32.3 µM (inactive); GI50 [37]: > 100 µM (inactive); GI50 [38]: > 100 µM (inactive); GI50 [39]: > 100 µM (inactive); GI50 [40]: 30.2 µM (inactive); GI50 [41]: 32.1 µM (inactive); GI50 [42]: > 100 µM (inactive); GI50 [43]: > 100 µM (inactive); GI50 [44]: > 100 µM (inactive); GI50 [45]: > 100 µM (inactive); GI50 [46]: 20.2 µM (inactive); GI50 [47]: > 100 µM (inactive); GI50 [48]: 18.1 µM (inactive); GI50 [49]: > 100 µM (inactive); GI50 [50]: 42.7 µM (inactive); GI50 [51]: > 100 µM (inactive); GI50 [52]: 71.8 µM (inactive)

— ChEMBL document CHEMBL1201862, “PubChem BioAssay data set” (2004)
